Results on two compounds are retold here after patent US4689345A, “Oxygenated alkyl substituted bicyclo alkanes” (CBD Corporation, priority 1986, dated 1987).

Test [1] concerns fungal androgen receptors. Put plainly: Fungal androgen receptor inhibition, Fusarium. It counts as binding. From the text: In the second series of experiments using the compound of the invention 2-(5-hydroxyhept-1-yl) bicyclo[3.3.0]octan-7-one {hexahydro-4-(5-hydroxyheptyl)-2-(1H)-pentalenone} upon zeralenone and zearalanol production, zearalenone and zearalanol were chemically obtained from Sigma Chemical Co., St. Louis, Mo.

The subject of test [2] is estrogen receptor. Put plainly: Fungal estrogen receptor inhibition, Fusarium. Type of test: binding.
Test [3] concerns progesterone receptor. Put plainly: Progesterone receptor inhibition, Torulopsis. Type of test: binding.
For test [4], the system named is estrogen receptor. Put plainly: Estrogen receptor inhibition, Actinomyces. It counts as binding.
The test system of test [5] is estrogen receptor. Description: Estrogen receptor inhibition, Blastomyces. It counts as binding.
Test [6] has as its system estrogen receptor. Put plainly: Estrogen receptor inhibition, Sporotrichum. Type of test: binding.
Test [7] deals with progesterone receptor. Description: Effect on progesterone receptors in melanoma. Type of test: binding. The following applies: 1:1000 DHT to compound.
The target of test [8] is T1, progesterone receptor (Homo sapiens, UniProt P06401).
T1 construct: Skin fibroblast tissue lines from surgical explants were obtained; endogenous in cells; host or cells: skin fibroblast lines from surgical explants (keloid, scalp, forearm)
T1 sequence (P06401 1-933): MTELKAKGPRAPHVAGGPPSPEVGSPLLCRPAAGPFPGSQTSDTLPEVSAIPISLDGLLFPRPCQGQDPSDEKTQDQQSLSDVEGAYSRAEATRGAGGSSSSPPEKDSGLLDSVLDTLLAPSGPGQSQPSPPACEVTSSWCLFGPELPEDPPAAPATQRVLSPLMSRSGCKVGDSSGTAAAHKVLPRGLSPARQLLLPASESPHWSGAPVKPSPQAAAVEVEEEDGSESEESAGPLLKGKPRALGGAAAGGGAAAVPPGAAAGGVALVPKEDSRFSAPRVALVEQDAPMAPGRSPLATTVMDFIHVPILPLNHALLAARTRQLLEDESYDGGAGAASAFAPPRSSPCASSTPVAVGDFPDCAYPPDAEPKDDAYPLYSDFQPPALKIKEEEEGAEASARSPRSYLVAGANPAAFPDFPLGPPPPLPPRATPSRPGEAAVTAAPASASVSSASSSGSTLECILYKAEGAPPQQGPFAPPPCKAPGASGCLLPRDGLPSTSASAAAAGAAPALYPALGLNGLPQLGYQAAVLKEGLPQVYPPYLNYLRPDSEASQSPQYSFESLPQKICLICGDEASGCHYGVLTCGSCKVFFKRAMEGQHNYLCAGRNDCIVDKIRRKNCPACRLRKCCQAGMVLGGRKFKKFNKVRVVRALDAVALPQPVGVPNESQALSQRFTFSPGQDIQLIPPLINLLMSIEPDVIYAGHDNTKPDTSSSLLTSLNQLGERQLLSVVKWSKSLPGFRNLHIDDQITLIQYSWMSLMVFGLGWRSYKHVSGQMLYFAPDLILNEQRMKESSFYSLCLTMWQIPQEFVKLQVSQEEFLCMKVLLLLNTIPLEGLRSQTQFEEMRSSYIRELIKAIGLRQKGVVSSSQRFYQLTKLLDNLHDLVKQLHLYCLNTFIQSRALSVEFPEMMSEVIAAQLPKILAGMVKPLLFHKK
Put plainly: Progesterone receptor inhibition in skin/tissue fibroblast lines. To be noted: DHT:compound 1:1,000. Type of test: cell-based. The protocol: Explants of both normal and keloid skin and tissue fibroblast lines were established.
Hormonal receptor analyses on these tissues were performed by the method of Griffith et al., Journal of Clinical Investigation, Vol. 57, page 1340 (1978).

In a further test the test system is estrogen receptors. Put plainly: Effect on estrogen receptors in breast capsule tissue. To be noted: breast capsule / hard band tissue. It counts as binding, human. As to the method:
(§1) "Hard fibrous band" formation was retarded around breast implants following augmentation surgery.
The tissues were evaluated, with appropriate controls, for effects by the novel anti-androgen.

A further test relates to hard fibrous band. Put plainly: Hard fibrous band formation around breast implants following augmentation surgery. More on the design: species or system human.
Description: as §1

Another test concerns the target T2, androgen receptor (Homo sapiens, UniProt P10275).
T2 sequence (P10275 1-920): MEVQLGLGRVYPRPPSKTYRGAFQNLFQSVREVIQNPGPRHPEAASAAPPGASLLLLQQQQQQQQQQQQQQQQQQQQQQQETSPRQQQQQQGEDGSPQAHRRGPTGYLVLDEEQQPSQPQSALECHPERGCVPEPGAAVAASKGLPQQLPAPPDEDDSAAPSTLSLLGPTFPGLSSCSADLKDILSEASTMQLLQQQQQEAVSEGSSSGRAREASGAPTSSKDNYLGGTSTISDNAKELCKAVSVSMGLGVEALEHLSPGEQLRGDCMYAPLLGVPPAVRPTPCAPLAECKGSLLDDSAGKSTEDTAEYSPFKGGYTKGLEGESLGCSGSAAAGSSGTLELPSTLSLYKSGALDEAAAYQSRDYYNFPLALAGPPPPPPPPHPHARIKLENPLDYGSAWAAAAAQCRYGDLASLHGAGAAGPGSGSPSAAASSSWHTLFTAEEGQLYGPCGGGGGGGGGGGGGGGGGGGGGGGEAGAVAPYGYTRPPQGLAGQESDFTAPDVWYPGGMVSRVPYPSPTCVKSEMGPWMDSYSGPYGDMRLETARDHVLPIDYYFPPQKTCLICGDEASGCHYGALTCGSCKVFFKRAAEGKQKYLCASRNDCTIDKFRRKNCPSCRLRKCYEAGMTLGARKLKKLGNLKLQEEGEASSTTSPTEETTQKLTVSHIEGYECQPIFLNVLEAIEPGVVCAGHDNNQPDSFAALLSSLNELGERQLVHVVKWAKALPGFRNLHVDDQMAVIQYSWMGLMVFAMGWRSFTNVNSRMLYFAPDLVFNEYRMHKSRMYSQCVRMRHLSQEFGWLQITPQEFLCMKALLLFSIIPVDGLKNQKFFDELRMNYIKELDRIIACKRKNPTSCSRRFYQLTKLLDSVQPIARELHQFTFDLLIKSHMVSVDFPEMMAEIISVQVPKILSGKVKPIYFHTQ
Put plainly: Androgen receptor blocking in breast capsule (hard band) tissue. Type of test: binding. The arrangement: from tissue; host or cells: breast capsule (hard fibrous band) tissue; concentration or dose not given beside the values. From the text:
In addition to interabdominal adhesions following surgery, the other most common post-surgical fibrous complication is that of a hard fibrous band developing around breast implants following breast augmentation surgery. It has been postulated that these bands may be caused by keloid formation under the skin. Such tissues were studied to evaluate the effect of the anti-androgens of this invention on other keloid tissue.

Values joined by “and” are separate entries in the source; they are usually repeats but may differ in a detail not shown here. Equal values may be shown once.

Take `CCC(O)CCCCC1CCC2CC(=O)CC12` (centres unmarked) [Compound IV]: the “fungal androgen receptors blocked” value in [1] (DHT:compound 1:1,000) is 9-83%. The “% Androgen Receptor Inhibition” value in test [1] (fungal hormone Zeralanol) was found to be 84%; in test [1] (fungal hormone Zeralenone) it was 79%. Besides, the “blocking of interaction of fungal hormone and its hormonal receptors” value in test [1] (hormone:anti-androgen 1:1 to 1:1,000) is recorded as 26-90%. For the same compound, the “% Estrogen Receptor Inhibition” value in the test with estrogen receptor [2] (fungal hormone Zeralanol), in the test with estrogen receptor [2] (fungal hormone Zeralenone), in the test on estrogen receptor [4], in the test with estrogen receptor [5] and in the test on estrogen receptor [6] was 0% each time. The “% Progesterone Receptor Inhibition” value in the test on progesterone receptor [3] turned out to be 6%.

With `CCC(CCCCC1CCC2CC(=O)CC12)OC` (centres unmarked) [Compound V, 2-(5-Methoxyhept-1-yl)bicyclo[3.3.0]octan-7-one], the “effect on progesterone receptors in melanoma tissue” value with progesterone receptor [7] is on record as “no significant effect”. Also, the “interference with progesterone receptors” value on progesterone receptor [8] (more than 400 experiments) is “without significant interference”. In addition, the “% Progesterone Receptor Inhibition” value at progesterone receptor [8] (forearm) was 4%; on progesterone receptor [8] (keloid), 0%; on progesterone receptor [8] (keloid, listed as 2-(5-methoxyhept-1-yl)bicyclo[3.3.0]octan-7-one), “no measurable”; on progesterone receptor [8] (scalp), 7% and 0% and 3%. Also, the “effect on estrogen receptors” value was “without any significant effects” in the test on estrogen receptors and “no significant effects” in the test on estrogen receptors (listed as 2-(5-methoxyhept-1-yl)bicyclo[3.3.0]octan-7-one). The “hard fibrous band formation around breast implants” value with hard fibrous band is “retarded”. In addition, the “Mean % Androgen Inhibition” value is 17% on androgen receptor (breast capsule group 1), 49% at androgen receptor (breast capsule group 2), 70% at androgen receptor (breast capsule group 3) and 74% at androgen receptor (breast capsule group 4).
